Reference: US20020110838A1, “Methods for assessing muscle protein wasting and therapeutics therefor” (priority 2000, published 2002)
“Also recorded” adds a separate entry of the source. Where a SMILES comes first, the peptide text is derived from it. The star is where a group is joined. Cbz = O=C(OCc1ccccc1)*

Tests used:
14 kDa actin fragment [1] = assay: Actin cleavage in L6 cell extracts incubated at 37° C. (immunoblot of 14 kDa actin fragment); format: biochemical, rat
Protocol: The cell extracts were incubated at 37° C. for various times before proteins were separated and subjected to Western blot analysis using commercially available, affinity-purified, polyclonal antibodies directed against the carboxy-terminus of actin.
To support this conclusion, we incubated lysates of L6 muscle cells at 37° C. with recombinant caspase 3 and then used Western blotting and detected the appearance of the actin fragment.
To test for involvement of the proteasome, we added MG132, an inhibitor of proteasome activity (ProScript, Inc. Cambridge, Mass.), and ATP to cell extracts before the 3 hr incubation at 37° C..
L6 muscles cells were washed and collected in ice cold PBS. Cells were swelled in hypotonic buffer (5 mM Tris pH 8.0, 1 mM 2-mercaptoethanol, 1% glycerol, 1 mM EDTA, 1 mM EGTA containing 0.1 mM phenylmethanesulfonyl fluoride (PMSF), leupeptin (5 μg/ml) and aprotinin (5 μg/ml) on ice for 30 minutes, and the cells were then gently homogenized with twenty strokes of a dounce homogenizer, with the materials being kept on ice. Homogenates were centrifuged at 3500 rpm (about 2000×g) for 10 minutes to remove nuclei and cell debris.
To assess for proteolytic cleavage of actin, extracts (20 μg of total protein) were incubated in 20 μl reaction volumes containing 25 mM Hepes (pH 7.5), 5 mM EDTA, 5 mM DTT for 3 h at 37° C. Reactions were terminated by adding Laemmli sample buffer, proteins were separated by SDS-PAGE, and immunoblot detection of actin fragments was carried out with an anti-actin antibody (Sigma).
The proteins were then transferred to ECL hybond membranes, and blots were incubated with anti-actin antibodies (1:500 dilution) in 5% milk in TTBS for 2 hours at 37° C. Bound primary antibodies were detected with goat anti-rabbit IgG antibody conjugated with HRRP and analyzed with ECL Detection Kit.

14 kDa actin fragment [2] = assay: Serum starvation-induced actin cleavage in L6 muscle cells; format: cell-based, rat; details: for serum starvation-induced actin cleavage: serum-starved L6 cells, 10 nM hormone added
Protocol: Physiological conditions trigger caspase 3-mediated actin cleavage . To examine whether a catabolic condition that is known to accelerate protein degradation in muscle cells also involves actin cleavage, L6 muscle cells were activated by 24 h of serum starvation (0.5% FBS) and cell lysates were prepared. […] Additional evidence for involvement of apoptosis-associated pathways was obtained by activating L6 cells using the serum starvation procedure and then adding insulin or IGF I because either hormone can prevent serum starvation induced apoptosis (24,25).

14 kDa actin fragment [3] = assay: 14 kDa actin peptide in intact L6 cells, measured after lysis; format: cell-based, rat; set-up: 14 kDa actin peptide in intact L6 cells activated with staurosporine and treated with proteasome inhibitor: dose or concentration left out as unconfirmed
Protocol: Actin cleavage was measured in lysates immediately after lysis.
This fragment (and others) are then rapidly degraded by the ubiquitin-proteasome system. […] The cells were then lysed and tested for the presence of the 14 kDa actin peptide.

L6 muscle cells [4] = assay: Apoptosis by Death ELISA / DNA fragmentation in L6 muscle cells; format: cell-based, rat; details: cultured L6 muscle cells, Death ELISA assay
caspase 3 = assay: Caspase 3 activation in L6 muscle cells (immunoblot); format: cell-based, rat; details: FIG. 4
Description: The caspase-specific proteins were separated by SDS-PAGE and visualized by immunoblotting with polyclonal antibodies prepared in response to the N-terminus of caspase 3.
Subsequently, proteins were separated and subjected to Western blot analysis using affinity-purified, polyclonal antibodies against the carboxy-terminus of actin (Sigma St. Louis, Mo.).

L6 muscle cells [5] = assay: Degradation of endogenous proteins in cell extracts (release of free tyrosine); format: cell-based, rat; details: 50 nM staurosporine 3 h; extracts 37° C. 3 h; exogenous ATP added
Protocol: L6 muscle cells were treated as marked, and lysates were incubated at 37° C. for 3 hours in the presence or absence of ATP (2 mM). Degradation of endogenous protein was monitored by measuring release of acid-soluble tyrosine from cell protein.
With this method, protein degradation in extracts of control cells was slightly less than that in extracts from staurosporine-treated cells. However, the 3 hour incubation at 37° C. could limit ATP and impair activity of the ubiquitin-proteasome system.
Protein degradation in cell extracts was assessed by measuring the net release of free tyrosine because muscles neither synthesizes nor degrades this amino acid (18,19). For 3 hours, 50 μg of cell extract proteins were incubated at 37° C. in 0.1 ml of reaction buffer (20 mM Tris (pH 7.6), 2 mM DTT, 10 mM MgCl2, 100 mM KCl, 5% glycerol) with or without 2 MM ATP.
Trichloroacetic acid (10% final concentration) was added and the amount of free tyrosine released from proteins was measured spectrofluorometrically. Alternatively, total cell protein can be labeled by growth in the presence of one or more radioactive amino acids, e.g., ^14C-labeled or ^3H-labeled, and solubilization of radioactive label can be measured with the use of liquid scintillation counting.

epitrochlearis muscles = assay: Protein degradation in incubated epitrochlearis muscles; set-up: species or system rat; details: epitrochlearis muscles in Krebs-Henseleit bicarbonate buffer with vs without inhibitor
Protocol: Rats were treated with streptozotocin and compared to pair-fed, rats injected with saline as described (4,26). Crude muscle lysates were isolated from acutely diabetic and control rats and examined for the presence of the 14 kDa actin fragment. A significant amount of this actin fragment was present in the muscle of diabetic rats compared to results from control rats. Finally, epitrochlearis muscles were incubated in Krebs-Henseleit bicarbonate buffer with or without the addition of the cell-permeable inhibitor of caspase 3, Ac-DEVD-Cho.

## Arg-Ala
14 kDa actin fragment [1]; extracts of staurosporine-exposed L6 cells, 37° C., dipeptide (2 mM) and ATP
  amount of the 14 kDa actin fragment vs incubation with ATP alone: greater amount

## Nc1ncnc2c1ncn2[C@@H]1O[C@H](COP(=O)(O)OP(=O)(O)OP(=O)(O)O)[C@@H](O)[C@H]1O [ATP]
14 kDa actin fragment [1]; 2 mM ATP added to extracts from staurosporine-treated cells, 3 hr, 37° C.
  amount of the 14 kDa peptide vs same extract without added ATP: significantly reduced

## IGF I
14 kDa actin fragment [2]
  serum starvation-induced actin cleavage: effectively blocked

## insulin
14 kDa actin fragment [2]
  serum starvation-induced actin cleavage: effectively blocked

## CC(C)C[C@@H](C=O)NC(=O)[C@H](CC(C)C)NC(=O)[C@H](CC(C)C)NC(=O)OCc1ccccc1 [MG132] (Cbz-Leu-Leu-Leu-aldehyde)
14 kDa actin fragment [1]; MG132 and ATP added to cell extracts before 3 hr incubation at 37° C.
  amount of the 14 kDa actin peptide with proteasome inhibitor in presence of ATP: greater amounts
14 kDa actin fragment [3]; 24 hr staurosporine plus MG 132
  14 kDa actin peptide in intact L6 cells activated with staurosporine and treated with proteasome inhibitor: readily detected
14 kDa actin fragment [3]; L6 cells incubated 24 hr with single agent, then lysed
  14 kDa actin fragment in intact L6 cells, agent alone: only a small amount

## CN[C@@H]1C[C@H]2O[C@@](C)([C@@H]1OC)n1c3ccccc3c3c4c(c5c6ccccc6n2c5c31)C(=O)NC4 [staurosporine]
L6 muscle cells [4]
  activation of apoptosis: activates apoptosis
Caspase 3
  induction of caspase 3 activity: induces caspase 3 activity
L6 muscle cells [5]
  tyrosine release by extracts from staurosporine-treated cells vs control cell extracts: overall protein degradation is increased; also recorded: significantly higher

## Ac-DEVD-Cho
14 kDa actin fragment [1]; extracts of L6 cells treated with 10 nM staurosporine or serum starvation, 5 μM inhibitor for 3 hr
  appearance of the 14 kDa actin fragment with caspase 3 inhibitor: blocked the appearance of the actin fragment
14 kDa actin fragment [2]; 24 h serum starvation (0.5% FBS), inhibitor added to cell lysate during incubation
  accumulation of the 14 kDa actin fragment after serum starvation: blocked the accumulation
Epitrochlearis muscles
  reduction of the rate of muscle protein degradation: 30%
